In ChEMBL document CHEMBL4145494, “Synthesis and biological evaluation of aurora kinases inhibitors based on N-trisubstituted pyrimidine scaffold” (Eur J Med Chem, 2018):
The source made the active and inactive calls. The rule behind the calls is not given here.

Experiments:
[1] = biological target: T1, Aurora kinase A (Homo sapiens, UniProt O14965); assay: Inhibition of AURKA (unknown origin) using FAM-labeled peptide substrate preincubated for 10 mins followed by substrate addition measured after 60 mins by caliper assay
T1 sequence (O14965 whole entry): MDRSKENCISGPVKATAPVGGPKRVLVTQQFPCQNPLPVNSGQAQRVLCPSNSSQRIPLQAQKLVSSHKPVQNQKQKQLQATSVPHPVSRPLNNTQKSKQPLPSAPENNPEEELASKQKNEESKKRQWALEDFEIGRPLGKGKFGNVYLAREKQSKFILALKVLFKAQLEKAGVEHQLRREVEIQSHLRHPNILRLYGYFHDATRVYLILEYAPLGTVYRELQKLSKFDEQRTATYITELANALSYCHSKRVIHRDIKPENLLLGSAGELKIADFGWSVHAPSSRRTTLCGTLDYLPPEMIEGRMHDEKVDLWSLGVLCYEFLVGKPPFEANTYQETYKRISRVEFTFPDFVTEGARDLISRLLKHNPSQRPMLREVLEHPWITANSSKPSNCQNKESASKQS

[2] = biological target: Aurora kinase B (Homo sapiens, UniProt Q96GD4); assay: Inhibition of AURKB (unknown origin) using FAM-labeled peptide substrate preincubated for 10 mins followed by substrate addition measured after 60 mins by caliper assay
[3] = test system: U-937; assay: Antiproliferative activity against human U937 cells after 48 hrs by CCK8 assay; assay type: functional, cell-based; settings: U-937, 48 h
[4] = test system: K562; assay: Antiproliferative activity against human K562 cells after 48 hrs by CCK8 assay; assay type: functional, cell-based; settings: K562, 48 h
[5] = test system: HeLa; assay: Antiproliferative activity against human HeLa cells after 48 hrs by CCK8 assay; assay type: functional, cell-based
[6] = test system: MDA-MB-231; assay: Antiproliferative activity against human MDA-MB-231 cells after 48 hrs by CCK8 assay; assay type: functional, cell-based; settings: MDA-MB-231, 48 h
[7] = test system: MCF7; assay: Antiproliferative activity against human MCF7 cells after 48 hrs by CCK8 assay; assay type: functional, cell-based; settings: MCF7, 48 h
[8] = test system: HCT-116; assay: Antiproliferative activity against human HCT116 cells after 48 hrs by CCK8 assay; assay type: functional, cell-based; settings: HCT-116, 48 h
[9] = test system: A-431; assay: Antiproliferative activity against human A431 cells after 48 hrs by CCK8 assay; assay type: functional, cell-based; settings: A-431, 48 h
[10] = test system: NB-4; assay: Antiproliferative activity against human NB4 cells after 48 hrs by CCK8 assay; assay type: functional, cell-based; settings: NB-4, 48 h
[11] = test system: HL-60; assay: Antiproliferative activity against human HL60 cells after 48 hrs by CCK8 assay; assay type: functional, cell-based; settings: HL-60, 48 h
[12] = test system: U-937; assay: Induction of apoptosis in human U937 cells assessed as live cells at 0.3 uM after 48 hrs by Annexin-V/propidium iodide staining based flow cytometry (reference value: 94.6%); assay type: functional
[13] = test system: U-937; assay: Induction of apoptosis in human U937 cells assessed as early apoptotic cells at 0.3 uM after 48 hrs by Annexin-V/propidium iodide staining based flow cytometry (reference value: 2.38%); assay type: functional
[14] = test system: U-937; assay: Induction of apoptosis in human U937 cells assessed as late apoptotic cells at 0.3 uM after 48 hrs by Annexin-V/propidium iodide staining based flow cytometry (reference value: 1.93%); assay type: functional
[15] = test system: U-937; assay: Induction of apoptosis in human U937 cells assessed as necrotic cells at 0.3 uM after 48 hrs by Annexin-V/propidium iodide staining based flow cytometry (reference value: 1.13%); assay type: functional
[16] = test system: U-937; assay: Induction of apoptosis in human U937 cells assessed as live cells at 0.6 uM after 48 hrs by Annexin-V/propidium iodide staining based flow cytometry (reference value: 94.6%); assay type: functional
[17] = test system: U-937; assay: Induction of apoptosis in human U937 cells assessed as early apoptotic cells at 0.6 uM after 48 hrs by Annexin-V/propidium iodide staining based flow cytometry (reference value: 2.38%); assay type: functional
[18] = test system: U-937; assay: Induction of apoptosis in human U937 cells assessed as late apoptotic cells at 0.6 uM after 48 hrs by Annexin-V/propidium iodide staining based flow cytometry (reference value: 1.93%); assay type: functional
[19] = test system: U-937; assay: Induction of apoptosis in human U937 cells assessed as necrotic cells at 0.6 uM after 48 hrs by Annexin-V/propidium iodide staining based flow cytometry (reference value: 1.13%); assay type: functional
[20] = test system: U-937; assay: Induction of apoptosis in human U937 cells assessed as live cells at 1.2 uM after 48 hrs by Annexin-V/propidium iodide staining based flow cytometry (reference value: 94.6%); assay type: functional
[21] = test system: U-937; assay: Induction of apoptosis in human U937 cells assessed as early apoptotic cells at 1.2 uM after 48 hrs by Annexin-V/propidium iodide staining based flow cytometry (reference value: 2.38%); assay type: functional
[22] = test system: U-937; assay: Induction of apoptosis in human U937 cells assessed as late apoptotic cells at 1.2 uM after 48 hrs by Annexin-V/propidium iodide staining based flow cytometry (reference value: 1.93%); assay type: functional
[23] = test system: U-937; assay: Induction of apoptosis in human U937 cells assessed as necrotic cells at 1.2 uM after 48 hrs by Annexin-V/propidium iodide staining based flow cytometry (reference value: 1.13%); assay type: functional
[24] = test system: K562; assay: Cell cycle arrest in human K562 cells assessed as accumulation at G2/M phase at 0.1 to 1 uM after 24 hrs by propidium iodide staining based flow cytometry relative to control; assay type: functional
[25] = test system: NB-4; assay: Cell cycle arrest in human NB4 cells assessed as accumulation at G2/M phase at 0.1 to 1 uM after 24 hrs by propidium iodide staining based flow cytometry relative to control; assay type: functional
[26] = test system: U-937; assay: Cell cycle arrest in human U937 cells assessed as accumulation at G2/M phase at 0.1 to 1 uM after 24 hrs by propidium iodide staining based flow cytometry relative to control; assay type: functional
[27] = test system: K562; assay: Cell cycle arrest in human K562 cells assessed as decrease in 2N DNA content at 0.1 to 1 uM after 24 hrs by propidium iodide staining based flow cytometry; assay type: functional
[28] = test system: NB-4; assay: Cell cycle arrest in human NB4 cells assessed as decrease in 2N DNA content at 0.1 to 1 uM after 24 hrs by propidium iodide staining based flow cytometry; assay type: functional
[29] = test system: U-937; assay: Cell cycle arrest in human U937 cells assessed as decrease in 2N DNA content at 0.1 to 1 uM after 24 hrs by propidium iodide staining based flow cytometry; assay type: functional
[30] = test system: MDA-MB-231; assay: Inhibition of alpha-tubulin in human MDA-MB-231 cells assessed as abolishment of regular location of protein at 0.5 uM after 48 hrs by DAPI staining based immunofluorescence assay; assay type: cell-based
[31] = test system: MDA-MB-231; assay: Induction of chromosome alignment defects in human MDA-MB-231 cells at 1 uM after 48 hrs by DAPI staining based immunofluorescence assay; assay type: functional, cell-based
[32] = test system: MDA-MB-231; assay: Induction of aberrant spindle formation with tripolar and tetrapolar occurrence in human MDA-MB-231 cells at 1 uM after 48 hrs by DAPI staining based immunofluorescence assay; assay type: functional, cell-based
[33] = test system: U-937; assay: Antitumor activity against human U937 cells xenografted in nude mouse assessed as tumor size at 50 mg/kg, ip administered once daily for 9 days (reference value: 1069.16 +/- 327.22 mm3); assay type: functional
[34] = test system: U-937; assay: Antitumor activity against human U937 cells xenografted in nude mouse assessed as tumor size at 100 mg/kg, ip administered once daily for 9 days (reference value: 1069.16 +/- 327.22 mm3); assay type: functional
[35] = test system: U-937; assay: Antitumor activity against human U937 cells xenografted in nude mouse assessed as tumor weight at 50 mg/kg, ip administered once daily for 9 days (reference value: 1.64 +/- 0.22 g); assay type: functional
[36] = test system: U-937; assay: Antitumor activity against human U937 cells xenografted in nude mouse assessed as tumor weight at 100 mg/kg, ip administered once daily for 9 days (reference value: 1.64 +/- 0.22 g); assay type: functional
[37] = test system: Mus musculus; assay: Toxicity in nude mouse xenografted with human U937 cells assessed as body weight change at 50 to 100 mg/kg, ip administered once daily for 9 days; assay type: organism-based; settings: in vivo, 216 h
[38] = Stability of the compound up to 6 months at 40 +/- 2 degC and 75 +/- 5% relative humidity by HPLC analysis; assay type: physicochemical

Aurora kinase B, sequence (Q96GD4 whole entry): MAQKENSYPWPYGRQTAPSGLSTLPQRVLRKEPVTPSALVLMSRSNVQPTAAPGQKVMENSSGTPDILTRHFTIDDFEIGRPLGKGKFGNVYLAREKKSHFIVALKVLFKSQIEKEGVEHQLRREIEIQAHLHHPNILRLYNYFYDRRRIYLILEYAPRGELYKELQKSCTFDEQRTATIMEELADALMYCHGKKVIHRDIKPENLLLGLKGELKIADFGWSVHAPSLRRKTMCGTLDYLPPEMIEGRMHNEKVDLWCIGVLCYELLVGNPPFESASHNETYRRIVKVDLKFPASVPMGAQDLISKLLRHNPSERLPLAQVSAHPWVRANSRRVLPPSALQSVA

Cc1cc(Nc2cc(N3CCN(C)CC3)nc(Nc3ccc(F)c(Cl)c3)n2)n[nH]1
IC50 [1]: 7.1 nM | IC50 [2]: 25.7 nM | IC50 [3]: 12.2 nM | IC50 [4]: 95.2 nM | IC50 [5]: 277 nM | IC50 [6]: 95.5 nM | IC50 [7]: 213 nM | IC50 [8]: 180 nM | IC50 [9]: 80.9 nM | IC50 [10]: 500 nM | IC50 [11]: 34 nM | Activity [12]: 88.5% | Activity [13]: 1.76% | Activity [14]: 6.76% | Activity [15]: 3.01% | Activity [16]: 67.8% | Activity [17]: 2.11% | Activity [18]: 6.95% | Activity [19]: 3.12% | Activity [20]: 86.3% | Activity [21]: 2.22% | Activity [22]: 7.15% | Activity [23]: 4.34% | Activity [24]: >90% | Activity [25]: >90% | Activity [26]: >90% | Activity [27]: Active | Activity [28]: Active | Activity [29]: Active | inhibition [30]: Active | Activity [31]: Active | Activity [32]: Active | Activity [33]: 753.6 mm3 | Activity [34]: 528.88 mm3 | Activity [35]: 0.93 g | Activity [36]: 0.54 g | Activity [37]: Non-Toxic | Stability [38]: Stable
